PMC5218480 (PLoS ONE, 2017)

System: MV-4-11 cells
Experiment: Gene expression microarray analysis (Affymetrix PrimeView) and GSEA
Assay type: cell-based, human
Design: RFU PODN (11730768_x_at) / Fold change /veh PODN (11730768_x_at) / RFU LINC00158 (11744669_a_at) / Fold change /veh LINC00158 (11744669_a_at) / RFU DUSP10 (11751237_a_at) / Fold change /veh DUSP10 (11751237_a_at) / RFU ID3 (11757404_x_at) / Fold change /veh ID3 (11757404_x_at) / RFU PLEKHG5 (11737974_s_at) / Fold change /veh PLEKHG5 (11737974_s_at) / RFU LRRC4B (11730491_at) / Fold change /veh LRRC4B (11730491_at) / RFU GIMAP4 (11747438_a_at) / Fold change /veh GIMAP4 (11747438_a_at) / RFU KRT8 (11758183_x_at) / Fold change /veh KRT8 (11758183_x_at) / RFU CNN1 (11734310_a_at) / Fold change /veh CNN1 (11734310_a_at) / RFU VPS37D (11726825_at) / Fold change /veh VPS37D (11726825_at) / RFU C10orf10 (11716522_x_at) / Fold change /veh C10orf10 (11716522_x_at) / RFU KIR2DL2 /// KIR2DL4 /// KIR2DL5A /// KIR2DL5B /// KIR2DS1 /// KIR2DS2 /// KIR2DS3 /// KIR2DS4 /// KIR3DL3 /// KIR3DL3 /// KIR3DS1 (11738374_at) / Fold change /veh KIR2DL2 /// KIR2DL4 /// KIR2DL5A /// KIR2DL5B /// KIR2DS1 /// KIR2DS2 /// KIR2DS3 /// KIR2DS4 /// KIR3DL3 /// KIR3DL3 /// KIR3DS1 (11738374_at) / RFU C1QL1 (11718748_at) / Fold change /veh C1QL1 (11718748_at) / RFU TMPRSS4 (11747572_a_at) / Fold change /veh TMPRSS4 (11747572_a_at) / RFU HAMP (11756126_x_at) / Fold change /veh HAMP (11756126_x_at) / RFU RNFT2 (11725882_a_at) / Fold change /veh RNFT2 (11725882_a_at) / RFU NR4A2 (11747474_a_at) / Fold change /veh NR4A2 (11747474_a_at) / RFU ABCC12 (11746883_a_at) / Fold change /veh ABCC12 (11746883_a_at) / RFU TMEM136 (11760407_x_at) / Fold change /veh TMEM136 (11760407_x_at) / RFU CLDN22 /// WWC2 (11732394_at) / Fold change /veh CLDN22 /// WWC2 (11732394_at) / RFU HLA-DPB1 (11760878_x_at) / Fold change /veh HLA-DPB1 (11760878_x_at) / RFU SPINT1 (11716480_a_at) / Fold change /veh SPINT1 (11716480_a_at) / RFU GAP43 (11754022_s_at) / Fold change /veh GAP43 (11754022_s_at) / RFU A4GNT (11735810_at) / Fold change /veh A4GNT (11735810_at) / RFU PRB3 (11715151_x_at) / Fold change /veh PRB3 (11715151_x_at) / RFU TUBB4B (11761932_at) / Fold change /veh TUBB4B (11761932_at) / RFU CAPN14 (11732068_a_at) / Fold change /veh CAPN14 (11732068_a_at) / RFU TMCC2 (11721928_a_at) / Fold change /veh TMCC2 (11721928_a_at) / RFU IRGQ (11745062_a_at) / Fold change /veh IRGQ (11745062_a_at) / RFU FAM174B (11720279_a_at) / Fold change /veh FAM174B (11720279_a_at) / RFU TMPRSS4 (11748680_a_at) / Fold change /veh TMPRSS4 (11748680_a_at) / RFU FAM212B (11763350_a_at) / Fold change /veh FAM212B (11763350_a_at) / RFU PLEKHG5 (11743358_a_at) / Fold change /veh PLEKHG5 (11743358_a_at) / RFU ZSCAN30 (11745921_a_at) / Fold change /veh ZSCAN30 (11745921_a_at) / RFU CMKLR1 (11741424_a_at) / Fold change /veh CMKLR1 (11741424_a_at) / RFU LOC101060620 /// MAPK8IP1 (11723275_at) / Fold change /veh LOC101060620 /// MAPK8IP1 (11723275_at) / RFU SPTSSB (11747773_x_at) / Fold change /veh SPTSSB (11747773_x_at) / RFU PRSS12 (11739890_at) / Fold change /veh PRSS12 (11739890_at) / RFU BIN1 (11741810_x_at) / Fold change /veh BIN1 (11741810_x_at) / RFU WNT11 (11732464_a_at) / Fold change /veh WNT11 (11732464_a_at) / RFU C10orf10 (11716521_a_at) / Fold change /veh C10orf10 (11716521_a_at) / RFU C5orf56 (11738089_at) / Fold change /veh C5orf56 (11738089_at) / RFU CYB561 (11721691_x_at) / Fold change /veh CYB561 (11721691_x_at) / RFU ANKRD19P (11752326_a_at) / Fold change /veh ANKRD19P (11752326_a_at) / RFU OR2T12 /// OR2T33 /// OR2T8 (11738714_s_at) / Fold change /veh OR2T12 /// OR2T33 /// OR2T8 (11738714_s_at) / RFU VCAN (11748164_a_at) / Fold change /veh VCAN (11748164_a_at) / RFU JSRP1 (11732532_at) / Fold change /veh JSRP1 (11732532_at) / RFU KRTAP10-11 (11738290_x_at) / Fold change /veh KRTAP10-11 (11738290_x_at) / RFU MYO3A (11730013_a_at) / Fold change /veh MYO3A (11730013_a_at) / RFU EBF3 (11725865_a_at) / Fold change /veh EBF3 (11725865_a_at) / RFU CAMK2N1 (11719241_x_at) / Fold change /veh CAMK2N1 (11719241_x_at) / RFU C5orf56 (11738088_a_at) / Fold change /veh C5orf56 (11738088_a_at) / RFU OLFML3 (11715873_a_at) / Fold change /veh OLFML3 (11715873_a_at) / RFU LOC100653217 /// NTM (11731650_a_at) / Fold change /veh LOC100653217 /// NTM (11731650_a_at) / RFU MAPK11 (11762145_a_at) / Fold change /veh MAPK11 (11762145_a_at) / RFU FIZ1 (11724087_x_at) / Fold change /veh FIZ1 (11724087_x_at) / RFU OASL (11726364_x_at) / Fold change /veh OASL (11726364_x_at) / RFU SOX15 (11748057_x_at) / Fold change /veh SOX15 (11748057_x_at) / RFU CD79A (11719716_a_at) / Fold change /veh CD79A (11719716_a_at) / RFU HIST1H1D (11736915_at) / Fold change /veh HIST1H1D (11736915_at) / RFU CASKIN2 (11723855_a_at) / Fold change /veh CASKIN2 (11723855_a_at) / RFU LOC730098 (11760151_x_at) / Fold change /veh LOC730098 (11760151_x_at) / RFU OR4N2 (11742367_at) / Fold change /veh OR4N2 (11742367_at) / RFU PRRT2 (11749266_a_at) / Fold change /veh PRRT2 (11749266_a_at) / RFU SNX32 (11753110_a_at) / Fold change /veh SNX32 (11753110_a_at) / RFU CDHR5 (11726645_a_at) / Fold change /veh CDHR5 (11726645_a_at) / RFU RCAN1 (11760418_a_at) / Fold change /veh RCAN1 (11760418_a_at) / RFU FAM167A (11723789_a_at) / Fold change /veh FAM167A (11723789_a_at) / RFU FAM26E (11764081_at) / Fold change /veh FAM26E (11764081_at) / RFU ISYNA1 (11749810_s_at) / Fold change /veh ISYNA1 (11749810_s_at) / RFU ACY1 (11761880_at) / Fold change /veh ACY1 (11761880_at) / RFU 11764098_at / Fold change /veh 11764098_at / RFU SAMD14 (11745864_x_at) / Fold change /veh SAMD14 (11745864_x_at) / RFU NPB (11741838_a_at) / Fold change /veh NPB (11741838_a_at) / RFU TMPRSS6 (11731388_a_at) / Fold change /veh TMPRSS6 (11731388_a_at) / RFU KRTAP10-2 (11738614_at) / Fold change /veh KRTAP10-2 (11738614_at) / RFU ARHGAP8 /// PRR5-ARHGAP8 (11727945_x_at) / Fold change /veh ARHGAP8 /// PRR5-ARHGAP8 (11727945_x_at) / RFU KRTAP5-7 /// NADSYN1 (11734609_at) / Fold change /veh KRTAP5-7 /// NADSYN1 (11734609_at) / RFU RASL12 (11751679_a_at) / Fold change /veh RASL12 (11751679_a_at) / RFU CDKN2B (11736163_a_at) / Fold change /veh CDKN2B (11736163_a_at) / RFU PRF1 (11729649_at) / Fold change /veh PRF1 (11729649_at) / RFU, ZNF638 /// ZNF638-IT1 / Fold change vs veh, ZNF638 /// ZNF638-IT1 / RFU, PANK3 / Fold change vs veh, PANK3 / RFU, SH3YL1 / Fold change vs veh, SH3YL1 / RFU, ZEB2 / Fold change vs veh, ZEB2 / RFU, NRIP1 / Fold change vs veh, NRIP1 / RFU, PTTG1IP / Fold change vs veh, PTTG1IP / RFU, CAPN2 / Fold change vs veh, CAPN2 / RFU, MED14 / Fold change vs veh, MED14 / RFU, SNORA58 / Fold change vs veh, SNORA58 / RFU, C1orf63 / Fold change vs veh, C1orf63 / RFU, LRRFIP1 / Fold change vs veh, LRRFIP1 / RFU, NDUFAF7 / Fold change vs veh, NDUFAF7 / RFU, SLC12A2 / Fold change vs veh, SLC12A2 / RFU, IBTK / Fold change vs veh, IBTK / RFU, ESF1 / Fold change vs veh, ESF1 / Fold change vs veh, TMEM50B / RFU, TAOK1 / Fold change vs veh, TAOK1 / RFU, ACBD3 / Fold change vs veh, ACBD3 / RFU, TMA16 / Fold change vs veh, TMA16 / RFU, RWDD3 / Fold change vs veh, RWDD3 / RFU, BCAT1 / Fold change vs veh, BCAT1 / RFU, EDEM3 / Fold change vs veh, EDEM3 / RFU, TMEM33 / Fold change vs veh, TMEM33 / RFU, WDR75 / Fold change vs veh, WDR75 / RFU, AHCTF1 / Fold change vs veh, AHCTF1 / RFU, TFRC / Fold change vs veh, TFRC / RFU, ZDHHC17 / Fold change vs veh, ZDHHC17 / RFU, NOM1 / Fold change vs veh, NOM1 / RFU, ARL8B / Fold change vs veh, ARL8B / RFU, ZBTB11 / Fold change vs veh, ZBTB11 / RFU, TAMM41 / Fold change vs veh, TAMM41 / RFU, KIAA1704 /// LOC100996395 / Fold change vs veh, KIAA1704 /// LOC100996395 / RFU, ING1 / Fold change vs veh, ING1 / RFU, TRMT61B / Fold change vs veh, TRMT61B / RFU, FUBP3 / Fold change vs veh, FUBP3 / RFU, TP53 / Fold change vs veh, TP53 / RFU, TNKS2 / Fold change vs veh, TNKS2 / RFU, ZFP14 / Fold change vs veh, ZFP14 / RFU, ACTR2 / Fold change vs veh, ACTR2 / RFU, PPP3R1 / Fold change vs veh, PPP3R1 / RFU, PIK3R1 / Fold change vs veh, PIK3R1 / RFU, HNRNPA1 / Fold change vs veh, HNRNPA1 / RFU, RNF170 / Fold change vs veh, RNF170 / RFU, ZNF28 / Fold change vs veh, ZNF28 / RFU, RNGTT / Fold change vs veh, RNGTT / RFU, OGT / Fold change vs veh, OGT / RFU, BRD1 / Fold change vs veh, BRD1 / RFU, MARS / Fold change vs veh, MARS / RFU, ZNF655 / Fold change vs veh, ZNF655 / RFU, FAHD1 / Fold change vs veh, FAHD1 / RFU, BDP1 / Fold change vs veh, BDP1 / RFU, LRRCC1 / Fold change vs veh, LRRCC1 / RFU, ARID1A / Fold change vs veh, ARID1A / RFU, ZNF146 / Fold change vs veh, ZNF146 / RFU, ZNF330 / Fold change vs veh, ZNF330 / RFU, GPN3 / Fold change vs veh, GPN3 / RFU, C9orf123 / Fold change vs veh, C9orf123 / RFU, N4BP2L2 / Fold change vs veh, N4BP2L2 / RFU, ARFIP1 / Fold change vs veh, ARFIP1 / RFU, FAM179B / Fold change vs veh, FAM179B / RFU, BCL10 / Fold change vs veh, BCL10 / RFU, UHRF1BP1L / Fold change vs veh, UHRF1BP1L / RFU, BET1 / Fold change vs veh, BET1 / RFU, CNOT2 / Fold change vs veh, CNOT2 / RFU, ZNF268 / Fold change vs veh, ZNF268 / Fold change vs veh, ZNF507 / RFU, DGCR2 / Fold change vs veh, DGCR2 / RFU, WDSUB1 / Fold change vs veh, WDSUB1 / Fold change vs veh, HSP90B1 /// MIR3652 / RFU, ADSS / Fold change vs veh, ADSS / RFU, GK / Fold change vs veh, GK / RFU, ZNF148 / Fold change vs veh, ZNF148 / RFU, TAF9 / Fold change vs veh, TAF9 / RFU, SLC1A5 / Fold change vs veh, SLC1A5 / RFU, SLMO2 / Fold change vs veh, SLMO2 / RFU, ABCC4 / Fold change vs veh, ABCC4 / RFU, LOC101060439 /// RAP1B / Fold change vs veh, LOC101060439 /// RAP1B / RFU, RFX7 / Fold change vs veh, RFX7 / RFU, GTPBP10 / Fold change vs veh, GTPBP10 / RFU, CNEP1R1 / Fold change vs veh, CNEP1R1 / RFU, BIVM-ERCC5 /// ERCC5 / Fold change vs veh, BIVM-ERCC5 /// ERCC5 / RFU, ILF3 / Fold change vs veh, ILF3 / RFU 11762660_at / Fold change /veh 11762660_at / RFU VCAN (11757783_s_at) / Fold change /veh VCAN (11757783_s_at) / RFU DDX43 (11728927_at) / Fold change /veh DDX43 (11728927_at) / RFU KRT8 (11758188_x_at) / Fold change /veh KRT8 (11758188_x_at) / RFU NKD1 (11759106_at) / Fold change /veh NKD1 (11759106_at) / RFU SRD5A1 (11742802_a_at) / Fold change /veh SRD5A1 (11742802_a_at) / RFU TPSAB1 /// TPSB2 (11721975_s_at) / Fold change /veh TPSAB1 /// TPSB2 (11721975_s_at) / RFU GSTM3 (11746129_a_at) / Fold change /veh GSTM3 (11746129_a_at) / RFU IL23R (11737362_x_at) / Fold change /veh IL23R (11737362_x_at) / RFU TMEM51 (11727254_a_at) / Fold change /veh TMEM51 (11727254_a_at) / RFU PIWIL2 (11732686_x_at) / Fold change /veh PIWIL2 (11732686_x_at) / RFU ORM1 (11744905_x_at) / Fold change /veh ORM1 (11744905_x_at) / RFU CCDC152 (11743942_at) / Fold change /veh CCDC152 (11743942_at) / RFU ECM1 (11717891_a_at) / Fold change /veh ECM1 (11717891_a_at) / RFU IL23R (11748794_a_at) / Fold change /veh IL23R (11748794_a_at) / RFU TNFAIP8L3 (11732012_x_at) / Fold change /veh TNFAIP8L3 (11732012_x_at) / RFU MBOAT4 (11741988_at) / Fold change /veh MBOAT4 (11741988_at) / RFU 11764193_at / Fold change /veh 11764193_at / RFU TMEM53 (11763286_at) / Fold change /veh TMEM53 (11763286_at) / RFU MAGEB2 (11727129_at) / Fold change /veh MAGEB2 (11727129_at) / RFU TMEM200A (11744735_a_at) / Fold change /veh TMEM200A (11744735_a_at) / RFU CCDC152 (11751479_a_at) / Fold change /veh CCDC152 (11751479_a_at) / RFU FAM211A (11726209_a_at) / Fold change /veh FAM211A (11726209_a_at) / RFU RGS16 (11746705_a_at) / Fold change /veh RGS16 (11746705_a_at) / RFU VCAN (11755009_s_at) / Fold change /veh VCAN (11755009_s_at) / RFU RHOB (11743442_s_at) / Fold change /veh RHOB (11743442_s_at) / RFU RGS16 (11720943_a_at) / Fold change /veh RGS16 (11720943_a_at) / RFU RGS16 (11720944_at) / Fold change /veh RGS16 (11720944_at) / RFU, VPS4B / Fold change vs veh, VPS4B / RFU, CREB1 / Fold change vs veh, CREB1 / RFU, DNAJC13 / Fold change vs veh, DNAJC13 / RFU, GNAQ / Fold change vs veh, GNAQ / RFU, CDK5R1 / Fold change vs veh, CDK5R1 / RFU, ZRANB3 / Fold change vs veh, ZRANB3 / RFU, CUL4A / Fold change vs veh, CUL4A / RFU, CCNY / Fold change vs veh, CCNY / RFU, UFL1 / Fold change vs veh, UFL1 / RFU, COG3 / Fold change vs veh, COG3 / RFU, DIAPH2 / Fold change vs veh, DIAPH2 / RFU, SKA2 / Fold change vs veh, SKA2 / RFU, AFF3 / Fold change vs veh, AFF3 / RFU, LMF1 / Fold change vs veh, LMF1 / RFU, IPO11 / Fold change vs veh, IPO11 / RFU, DFFB / Fold change vs veh, DFFB / RFU, FOXP1 / Fold change vs veh, FOXP1 / RFU, CARD8 / Fold change vs veh, CARD8 / RFU, STRN3 / Fold change vs veh, STRN3 / RFU, ADK / Fold change vs veh, ADK / RFU, RASSF2 / Fold change vs veh, RASSF2 / RFU, WIPF1 / Fold change vs veh, WIPF1 / RFU, LARP1B / Fold change vs veh, LARP1B / RFU, RASA1 / Fold change vs veh, RASA1 / RFU, RB1 / Fold change vs veh, RB1 / RFU, PPFIA1 / Fold change vs veh, PPFIA1 / RFU, MAT2A / Fold change vs veh, MAT2A / RFU, CCT5 / Fold change vs veh, CCT5 / RFU, WDR92 / Fold change vs veh, WDR92 / RFU, CUX1 / Fold change vs veh, CUX1 / RFU, TTC7A / Fold change vs veh, TTC7A / RFU, TMEM135 / Fold change vs veh, TMEM135 / RFU, DEPTOR / Fold change vs veh, DEPTOR / RFU, CPM / Fold change vs veh, CPM / RFU, DNAJB6 / Fold change vs veh, DNAJB6 / RFU, CACNA2D3 / Fold change vs veh, CACNA2D3 / RFU, DTX4 / Fold change vs veh, DTX4 / RFU, TFCP2 / Fold change vs veh, TFCP2 / RFU, GMCL1 /// GMCL1P1 / Fold change vs veh, GMCL1 /// GMCL1P1 / RFU, AEBP2 / Fold change vs veh, AEBP2 / RFU, SNHG1 /// SNORD22 /// SNORD25 /// SNORD26 /// SNORD27 /// SNORD28 /// SNORD29 /// SNORD31 / Fold change vs veh, SNHG1 /// SNORD22 /// SNORD25 /// SNORD26 /// SNORD27 /// SNORD28 /// SNORD29 /// SNORD31 / Fold change (Aza/veh), C12orf56 (ProbeSet 11735607_a_at) / Fold change (ACY-1035/veh), C12orf56 (ProbeSet 11735607_a_at) / Fold change (Aza/veh), FGFR1OP (ProbeSet 11751329_s_at) / Fold change (ACY-1035/veh), FGFR1OP (ProbeSet 11751329_s_at) / Fold change (Aza/veh), VPS36 (ProbeSet 11739960_a_at) / Fold change (ACY-1035/veh), VPS36 (ProbeSet 11739960_a_at) / RFU SYPL1 (11715823_x_at) / Fold change /veh SYPL1 (11715823_x_at) / RFU IGFBP7 (11715501_s_at) / Fold change /veh IGFBP7 (11715501_s_at) / RFU REEP3 (11722064_at) / Fold change /veh REEP3 (11722064_at) / RFU IGLL1 (11728026_x_at) / Fold change /veh IGLL1 (11728026_x_at): dose or concentration left out as unconfirmed
Conditions: MV-4-11 cells, 48 hours

## Nc1ccc(-c2cccs2)cc1NC(=O)c1ccc2c(c1)cc(C1CC1)n2CCN1CCOCC1 [ACY-1035]
  RFU SPTSSB (11747773_x_at): 31.07 RFU
